Test results reported in patent US20250302823A1, “COMPOSITIONS AND METHODS FOR TREATING HEPATIC […] GLYCINE TRANSPORT INHIBITORS” (Disc Medicine, Inc., priority 2022, published 2025).

Columns and labels:
[1] = molecular target: T1, GlyT1 (Homo sapiens, UniProt P48067); assay: 3H-glycine uptake in HepG2 cells overexpressing GlyT1; type: cell-based
T1 construct: expressed in transfected cells; host or cells: HepG2, lentiviral infection (pLenti6.3-GlyT1)
T1 sequence (P48067 1-706): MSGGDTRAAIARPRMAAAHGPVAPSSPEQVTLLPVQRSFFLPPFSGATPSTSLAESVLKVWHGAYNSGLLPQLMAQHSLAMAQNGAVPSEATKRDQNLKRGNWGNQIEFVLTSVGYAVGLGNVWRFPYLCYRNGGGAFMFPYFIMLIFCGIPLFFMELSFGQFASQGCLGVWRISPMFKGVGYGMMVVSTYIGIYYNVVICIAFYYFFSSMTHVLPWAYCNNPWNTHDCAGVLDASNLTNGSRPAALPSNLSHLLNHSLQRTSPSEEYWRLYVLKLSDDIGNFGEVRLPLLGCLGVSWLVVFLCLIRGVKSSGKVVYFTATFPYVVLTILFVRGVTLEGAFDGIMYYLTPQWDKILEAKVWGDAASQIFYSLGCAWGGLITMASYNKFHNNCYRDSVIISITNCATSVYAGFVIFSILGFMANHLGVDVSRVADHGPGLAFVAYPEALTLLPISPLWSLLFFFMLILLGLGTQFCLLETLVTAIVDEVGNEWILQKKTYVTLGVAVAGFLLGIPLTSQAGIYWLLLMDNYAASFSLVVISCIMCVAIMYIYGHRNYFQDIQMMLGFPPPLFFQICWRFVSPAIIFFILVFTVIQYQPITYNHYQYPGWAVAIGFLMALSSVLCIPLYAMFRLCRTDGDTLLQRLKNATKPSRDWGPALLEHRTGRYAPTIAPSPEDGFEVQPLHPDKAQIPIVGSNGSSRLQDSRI
Protocol: The hepatic originated cell line HepG2 cell was engineered via lentiviral infection to overexpress untagged GlyT1 (FIG. 4A) or HA-Flag-tagged GlyT1 (FIG. 4B). Overexpression of GlyT1 was used to mimic the phenobarbital induced AIP symptoms observed in HepG2 as described in Example 3. The HA-Flag tagged construct was used to confirm the overexpression of the GlyT1 protein by Western blot. Overexpression of the untagged construct was confirmed by qPCR. The cells were cultured in the presence of the GlyT1 inhibitor bitopertin at room temperature for 60 min and then incubated with 20 nM ^3H-labeled glycine in the presence of 25 μM unlabeled glycine for 60 min. The uptake of glycine was measured by detection of radioisotope levels.

[2] = tested on: HepG2 cells transduced with shHMBS, GlyT1, ALAS1; assay: 5-ALA and PBG production in AIP cellular model (HepG2 with shHMBS, GlyT1, ALAS1); type: cell-based, human
Text: The hepatic origin cell line HepG2 was engineered to express shRNA against HMBS, a gene in the heme biosynthesis pathway whose loss-of-function mutations cause hepatic porphyria. The shRNA reduced HMBS mRNA by 50% and HMBS protein by 70%. Hepatic porphyria is a dormant disease activated by increased expression of ALAS1. To establish the cellular model that resembles the pathologic status of hepatic porphyria, the HepG2 cells with HMBS knockdown were also transduced by lentivirus to overexpress ALAS1 and GlyT1.
The normal plasma glycine concentration in human adults ranges from 0.12 to 0.55 mM. To confirm GlyT1 inhibitors such as bitopertin can decrease production of toxic metabolites at physiological condition, the modified HepG2 cells were treated with bitopertin in the presence of different concentrations of glycine (0.1-1 mM).

[3] = tested on: ALAS1 and GlyT1 mRNA in HepG2 cells; assay: qPCR expression of ALAS1 and GlyT1 in HepG2 cells after phenobarbital

**Q.** Which IC50 ([1]; engineered HepG2 overexpressing untagged or HA-Flag-tagged GlyT1, 20 nM 3H-glycine + 25 μM unlabeled glycine, 60 min) does the source give for `C[C@H](Oc1ccc(S(C)(=O)=O)cc1C(=O)N1CCN(c2ncc(C(F)(F)F)cc2F)CC1)C(F)(F)F` [bitopertin] here?
**A.** The IC50 was 710 to 1540 nM.

**Q.** What about the “glycine uptake in the engineered HepG2 cells” value ([1]; in the presence of bitopertin) of the same molecule?
**A.** The value was “significantly reduced”.

**Q.** And the “toxic metabolite 5-ALA at different glycine concentrations” value ([2]; glycine 0.1-1 mM in medium, FIG. 6A)?
**A.** Its value is “consistent reduction”.

**Q.** What about the “toxic metabolite PBG at different glycine concentrations” value ([2]; glycine 0.1-1 mM in medium, FIG. 6B) of the same molecule?
**A.** Its value is “consistent reduction”.

**Q.** And the “production of toxic metabolite 5-ALA” value ([2]; modified HepG2 cells, FIG. 5A)?
**A.** Its value is “significantly decrease”.

**Q.** What about the “production of toxic metabolite PBG” value ([2]; modified HepG2 cells, FIG. 5B) of the same molecule?
**A.** Its value is “significantly decrease”.

**Q.** Which results are given for `CCC1(c2ccccc2)C(=O)NC(=O)NC1=O` [phenobarbital]?
**A.** increase of mRNA of ALAS1 and GlyT1 ([3]; HepG2, 24 h after phenobarbital treatment): 3 fold; increase of mRNA of ALAS1 and GlyT1 ([3]; HepG2, 48 h after phenobarbital treatment): 6 fold
